According to patent US5665346A, “Human interleukin-8 analogs” (dated 1997):
Where two headings read alike, the source gives them in different places. Blank lines part the entries; values can stand above or below the molecule they belong to.

Legend:
[1] = molecular target: human neutrophils (receptor sites for IL-8 on neutrophils) (human); assay: competition with 125I-IL-8 1-72 on human neutrophils, LIGAND fit
[2] = system: human neutrophils; type: cell-based, human neutrophils from donor blood buffy coats; conditions: read-out: Chemotaxis ED50; n = 3
Excerpt: (§1) In a valuable aspect of the present invention, there are provided IL-8 analogs that are antagonists of IL-8 activity. Antagonists of IL-8 activity are characterized by the ability to reduce one or more of the measurable consequences of IL-8-mediated neutrophil stimulation. Biological assays are known which may be used to test for IL-8 activities or an ability to block or inhibit IL-8. The in vitro assays require human neutrophils which may be isolated from donor blood by known procedures such as that described by Peveri, et al (1988) J. Exp. Med. 167: 1547-1559. The assays include measurement of elastase release, cytosolic free calcium changes, and chemotaxis and may be performed according to methods described by Schroder, et al (1987) J. Immunol. 139: 3474-3483; and, Peveri, et al (1988) [supra].
(§2) For the biological assays referred to in the following examples, human neutrophils isolated from buffy coats of donor blood were placed in a final suspension of 10^8 cells/ml kept at 0.15mM MaCl, 0.05 mM CaCl2 at 10° C. until use. Competition binding studies were performed according to the following protocol. IL-8 was iodinated with Enzymobead reagent (Bio-Rad) as instructed by the supplier. Briefly, 1 nmol of IL-8 was mixed with 50 µl of rehydrated Enzymobead reagent, 50 µl of 0.2M potassium phosphate, pH 7.2, 2 mCl or Na^125 I, and […] of 2% D(+)-glucose and incubated for 30 min at 21° C. […] The ^125 I-IL-8 preparations were each analyzed for purity (SDS-polyacrylamide gel electrophoresis) and binding capacity (self-displacement analysis using freshly isolated human neutrophils) prior to use. Neutrophils ([…]) in 120 µl of RPMI 1640 medium containing 20 mM Hepes, pH 7.3, and 10 mg/ml BSA (binding medium) are incubated on ice (0°-4° C.) for 90 min with 1 nM ^125 I-IL-8 in the presence or absence of cold competitor (10^-11 to 10^-5). Cells are separated from unbound radioactivity by centrifugation for 1 min at 8000× g through 350 µl of phosphate-buffered saline (PBS) containing 60 mg/ml BSA (wash medium) in a Hettich Microliter centrifuge model 2020. The supernatant is aspirated, and the bottom of the tubes containing the cell sediment is sliced off and counted in a MR 480 automated µ counter (kontron). The Kd values were determined by calculating nonlinear least squares fits of the measured data, based on a single binding site model, and determining the Kd using a LIGAND program as described by Moser, et al (1991) J. Biol. Chem. 266: 10666-10671.
(§3) Cytokine analogs formed from the monomers described in Table 1 were compared for biological activity according to in vitro assays described herein. […] The binding dissociation constants (Kd values) were calculated from the competitive binding data shown in FIGS. 5 and 6 as described above.
FIG. 2 is a graph showing neutrophil chemotaxis activity of NH2 -terminal deletion IL-8 analogs. The chemotaxis index (stimulated migration/control random migration) was determined at the indicated concentrations of IL-8 1-72: .oval-solid., 1-72; .tangle-solidup., 3-72; .increment., 4-72; .diamond., 5-72; .box-solid., 6-72; .quadrature., 7-72; and .smallcircle., 77-residue IL-8. Unidirectional error bars indicate the standard deviations. Data are representative of three assays using different neutrophil preparations.
(§4) FIG. 4 is a graph showing neutrophil chemotaxis activity of the COOH-terminal deletion IL-8 analogs. The chemotactic index (stimulated migrations/control random migration) was determined at the indicated concentrations of IL-8 1-72: .oval-solid., 1-72; .smallcircle., 1-69; .tangle-solidup., 1-66; .increment., 1-63; .box-solid., 1-60; .quadrature., 1-58; .diamond., 1-54; and X, 1-51. Unidirectional error bars indicate the standard deviations. Data are representative of three assays using different neutrophil preparations.

[3] = system: human neutrophils; type: cell-based, human neutrophils from donor blood buffy coats; conditions: read-out: Elastase ED50; n = 3
Excerpt: as §1, §2, §3
Shown are determinations at the indicated concentrations of IL-8 1-72: .oval-solid., 1-72; .tangle-solidup., 3-72; .increment., 4-72; .diamond., 5-72; .box-solid., 6-72; .quadrature., 7-72; and .smallcircle., 77-residue IL-8. Unidirectional error bars indicate the standard deviations. Data are representative of three assays using different neutrophil preparations.
as §4, with “FIG. 3” for “FIG. 4”, “neutrophil elastase release” for “neutrophil chemotaxis”, “of” for “of the”, “analogs. Shown are determinations” for “analogs. The chemotactic index (stimulated migrations/control random migration) was determined”

[4] = molecular target: human neutrophils (receptor sites for IL-8 on neutrophils) (human); assay: competition with 125I-IL-8 on human neutrophils
[5] = system: human neutrophils; type: cell-based, human neutrophils from donor blood buffy coats; conditions: read-out: Binding Kd
Description: For the biological assays referred to in the following examples, human neutrophils isolated from buffy coats of donor blood were placed in a final suspension of 10^8 cells/ml kept at 0.15mM MaCl, 0.05 mM CaCl2 at 10° C. until use. Competition binding studies were performed according to the following protocol. […] C. […] Cells are separated from unbound radioactivity by centrifugation for 1 min at 8000× g through 350 µl of phosphate-buffered saline (PBS) containing 60 mg/ml BSA (wash medium) in a Hettich Microliter centrifuge model 2020. The supernatant is aspirated, and the bottom of the tubes containing the cell sediment is sliced off and counted in a MR 480 automated µ counter (kontron). The Kd values were determined by calculating nonlinear least squares fits of the measured data, based on a single binding site model, and determining the Kd using a LIGAND program as described by Moser, et al (1991) J. Biol. Chem. 266: 10666-10671.
as §3

[6] = system: human neutrophils; type: cell-based, human neutrophils from donor blood buffy coats
Description: For the biological assays referred to in the following examples, human neutrophils isolated from buffy coats of donor blood were placed in a final suspension of 10^8 cells/ml kept at 0.15mM MaCl, 0.05 mM CaCl2 at 10° C. until use. Competition binding studies were performed according to the following protocol. […] C. […] The supernatant is aspirated, and the bottom of the tubes containing the cell sediment is sliced off and counted in a MR 480 automated µ counter (kontron).
(§5) The effect of amino acid replacement on the activity of interleukin-8 analogues was also explored, using compounds prepared by t-boc-based solid phase peptide synthesis.

[7] = system: human neutrophils; type: cell-based, human neutrophils from donor blood buffy coats; conditions: read-out: IC50 (µM)
Description: Analog cytokines having residues 5-72; 6-72; and 7-72; respectively, were synthesized according to the method described herein. […] The assay was performed as previously described and elastase release is expressed in relative fluorescence units (1 unit=1 pMol 7-amino-4-methylcoumarine produced min). Mean values were determined from duplicate determinations form one out of three similar experiments performed with different neutrophil preparations.
as §5

- EC50 [2]: 0.00036 µM
- EC50 [3]: 0.013 µM
Molecule: IL-8 (1-72), SEQ ID NO: 1, Ser-Ala-Lys-Glu-Leu-Arg-Cys-Gln-Cys... [reference compound]

- Kd [1]: 0.00022 µM
- Kd [4]: 0.00022 µM
Molecule: IL-8 (4-72) (ligand)

- EC50 [2]: 0.00025 µM
- EC50 [3]: 0.0045 µM
Molecule: IL-8 (4-72), SEQ ID NO: 2, Glu-Leu-Arg-Cys-Gln-Cys...
- Kd [5]: 0.00022 µM
- Kd [6]: 0.00022 µM

- Kd [1]: 0.00076 µM
- Kd [4]: 0.0008 µM
Molecule: IL-8 (5-72) (ligand)

- EC50 [2]: 0.00048 µM
- EC50 [3]: 1 µM
Molecule: IL-8 (5-72), SEQ ID NO: 9, Leu-Arg-Cys-Gln-Cys...
- Kd [5]: 0.00076 µM
- Kd [6]: 0.0008 µM

- Kd [1]: 0.031 µM
- Kd [4]: 0.05 µM
Molecule: IL-8 (6-72) (ligand)

- Kd [4]: > 10 µM
Molecule: IL-8 (7-72) (ligand)

- EC50 [2]: 0.0067 µM
- EC50 [3]: 0.58 µM
Molecule: IL-8 residues 1-54
- Kd [5]: 0.01 µM

- EC50 [2]: 0.00032 µM
- EC50 [3]: 0.013 µM
Molecule: IL-8 residues 1-66

- EC50 [2]: 0.00014 µM
- EC50 [3]: 0.0075 µM
Molecule: IL-8 residues 1-69

- EC50 [2]: 0.00069 µM
- EC50 [3]: 0.025 µM
Molecule: IL-8 with 5 additional NH2-terminal residues [77-residue IL-8]
- Kd [5]: 0.00035 µM

- Kd [4]: 0.0079 µM
Molecule: IL-8, AAR (7-72) (ligand)

- Kd [4]: 0.22 µM
Molecule: IL-8, ELK (7-72) (ligand)

- Kd [4]: 0.016 µM
Molecule: IL-8, IR (7-72) (ligand)

- Kd [4]: 0.034 µM
Molecule: IL-8, QR (7-72) (ligand)

- IC50 [7]: 1.1 µM
Molecule: SEQ ID NO: 3, Glu-Leu-Gln-Cys-Gln-Cys... [IL-8, ELQ (7-72)]
- Kd [6]: 0.65 µM

- IC50 [7]: 0.7 µM
Molecule: SEQ ID NO: 4, Glu-Leu-Leu-Cys-Gln-Cys... [IL-8, ELL (7-72)]
- Kd [6]: 1.29 µM

- IC50 [7]: 1.8 µM
Molecule: SEQ ID NO: 5, Glu-Leu-Lys-Cys-Gln-Cys... [IL-8, ELK (7-72)]
- Kd [6]: 0.22 µM

- IC50 [7]: 0.3 µM
Molecule: SEQ ID NO: 8, Ala-Ala-Arg-Cys-Gln-Cys... [IL-8, AAR (7-72)]
- Kd [6]: 0.0079 µM

- IC50 [7]: 2.1 µM
Molecule: SEQ ID NO: 11, Gln-Arg-Cys-Gln-Cys... [IL-8, QR (7-72)]
- Kd [6]: 0.034 µM

- Kd [1]: 0.01 µM
B2: IL-8 1-54 (ligand)
chain: SAKELRCQCIKTYSKPFHPKFIKELRVIESGPHCANTEIIVKLSDGRELCLDPK

The next lines start with the molecule.

Molecule: 77-residue IL-8 (ligand)
- Kd [1]: 0.00035 µM

Molecule: IL-8 (6-72), SEQ ID NO: 12, Arg-Cys-Gln-Cys...
- IC50 [7]: 0.3 µM
- Kd [5]: 0.031 µM
- Kd [6]: 0.05 µM

Molecule: IL-8 (7-72), SEQ ID NO: 13, Cys-Gln-Cys...
- Kd [6]: > 10 µM

Molecule: IL-8 residues 1-51
- EC50 [2]: 0.0071 µM
- EC50 [3]: 0.68 µM
- Kd [5]: 0.017 µM

Molecule: IL-8 residues 1-58
- EC50 [2]: 0.0089 µM
- EC50 [3]: 0.68 µM

Molecule: IL-8 residues 1-60
- EC50 [2]: 0.0039 µM
- EC50 [3]: 0.22 µM

Molecule: IL-8 residues 1-63
- EC50 [2]: 0.0017 µM
- EC50 [3]: 0.15 µM

Molecule: IL-8 residues 3-72
- EC50 [2]: 0.00021 µM
- EC50 [3]: 0.0025 µM

Molecule: IL-8, ELL (7-72) (ligand)
- Kd [4]: 1.29 µM

Molecule: IL-8, ELNle (7-72) (ligand)
- Kd [4]: 0.17 µM

Molecule: IL-8, ELOrn (7-72) (ligand)
- Kd [4]: 0.4 µM

Molecule: IL-8, ELQ (7-72) (ligand)
- Kd [4]: 0.65 µM

Molecule: SEQ ID NO: 7, Glu-Leu-Nle-Cys-Gln-Cys... (Nle = norleucine) [IL-8, ELNle (7-72)]
- IC50 [7]: 1 µM
- Kd [6]: 0.17 µM

Molecule: SEQ ID NO: 10, Ile-Arg-Cys-Gln-Cys... [IL-8, IR (7-72)]
- IC50 [7]: 0.3 µM
- Kd [6]: 0.016 µM

B1: IL-8 1-51 (ligand)
chain: SAKELRCQCIKTYSKPFHPKFIKELRVIESGPHCANTEIIVKLSDGRELCL
- Kd [1]: 0.017 µM
